Series [1] concerns HCV-RNA in OR6 cells. The experiment in a line: Curing of OR6 cells by N-89 treatment (G418 selection, Western blot). In kind it is cell-based, hepatitis C virus. To be noted: 8 µM, 3 weeks, addition at 4-day intervals, absence of G418. The method, then:
(§1) To date, IFN-α alone or IFN-γ alone has generally been used to prepare cured cells from the cells harboring HCV-RNA [36]. Since we observed strong anti-HCV activity (>99% suppression) at 8 µM of N-89 in OR6 cells or 1 µM of N-89 in ORL8 cells without a decrease in cell viability (Fig. 1B), we expected that these cells might be cured only by treatment with N-89. Accordingly, OR6 and ORL8 cells were treated with 8 µM and 1 µM of N-89, respectively, in the absence of G418. The treatment was continued for 3 weeks with the addition of N-89 at 4-day intervals.
(§2) Figure 3 OR6 and ORL8 cells were cured by treatment with only N-89. The treated cells were divided into two plates with or without G418, and then cultured for 2 weeks. The left panels show the cells stained with Coomassie brilliant blue. The right panels show the results of Western blot analysis of the treated and non-treated cells for HCV proteins. Western blot analysis was performed as described in Fig. 1B.

Series [2] relates to HCV-RNA in ORL8 cells. The experiment in a line: Curing of ORL8 cells by N-89 treatment (G418 selection, Western blot). The format is cell-based, hepatitis C virus. Particulars: 1 µM, 3 weeks, addition at 4-day intervals, absence of G418. How it is done: as §1, §2
In series [3] the test system is HCV-RNA replication in ORL8 cells. The experiment in a line: Comparative time course RL assay in ORL8 cells. The format is cell-based, hepatitis C virus. How it is done:
We next performed a time course assay (2 to 72 hrs after treatment) in the case of ORL8 cells treated with N-89 (0.1 µM or 1 µM) or IFN-α (1 IU/ml; corresponding to approximately EC80). ORL8 cells treated with IFN-α (1 IU/ml) and N-89 (1 µM) had almost the same anti-HCV kinetics over the first […] after treatment (upper panel of Fig. 4); however, within the first 12 hrs after treatment N-89-treated ORL8 cells had more rapid anti-HCV kinetics than did the IFN-α-treated cells (lower panel of Fig. 4).
Figure 4 The anti-HCV action of N-89 was faster than that of IFN-α. The ORL8 cells were treated with N-89 or IFN-α, and then RL assays were performed at 2 to 72 hrs after the treatment. The relative value (%) calculated at each time point, when the luciferase activity of non-treated cells at 24 hrs was assigned as 100%, is shown. Data are expressed as the means±standard deviation of triplicate assays. […] To evaluate this possibility, we examined the effect of VE on N-89 at the EC90 level in the ORL8 assay. […] Similar results were obtained by using N-251 (Fig. 5C and D). […] However, an antimalarial drug, artemisinin, was hardly influenced by co-treatment with VE (Fig. 5E). The value (1.9) of artemisinin was almost the same as that (3.5 or 2.5) of IFN-α or the control, respectively (Fig. 5F).

The test system of series [4] is mice. Also noted: method as in PMID 11428929, PMID 17273878, PMID 12723958. To be noted: cited from earlier work.
In series [5] the test system is rats. Also noted: method as in PMID 11428929, PMID 17273878, PMID 12723958. To be noted: cited from earlier work.
Series [6] has as its system Plasmodium falciparum. Also noted: method as in PMID 11428929, PMID 17273878, PMID 12723958. Particulars: cited from earlier work.
Series [7] relates to Plasmodium berghei. Details: method as in PMID 11428929, PMID 17273878, PMID 12723958. Particulars: cited from earlier work.
Series [8] is described as follows: Viability of RSc-JRN/35B cells (WST-1, trypan blue cell counting). In kind it is cell-based, human. To be noted: human, read-out: viable cells by cell counting after trypan blue dye treatment. How it is done: (§3) The WST-1 cell proliferation assay was performed as described previously. Briefly, The cells were plated onto 96-well plates (1×10^3 cells per well) in triplicate and then treated with each reagent at several concentrations for 72 hrs. After treatment, the cells were subjected to the WST-1 cell proliferation assay (Takara Bio, Otsu, Japan) according to the manufacturer’s protocol. This assay is based on the enzymatic cleavage of the tetrazolium salt WST-1 to formazan by cellular mitochondrial dehydrogenases present in viable cells. Therefore, there are […] the value of the WST-1 assay becomes zero. The experiments were performed at least in triplicate. From the assay results, the 50% cytotoxic concentration (CC50) of each reagent was determined.
(§4) We next examined whether N-89 and N-251 worked in an HCV production system using HCV-JFH-1 strain (genotype 2a). […] To clarify whether anti-HCV activity depends on the difference of genotype or assay model, we evaluated the activities of N-89 and N-251 using RSc-JRN/35B [Ikeda et al., submitted] cells harboring a subgenomic HCV-JFH-1 replicon as an additional assay.

Series [9] has as its system RSc-JRN/35B cells. The description is as above. The format is cell-based, human. Particulars: 10 µM. The method, then:
as §3, §4

Take `C1CCCCCC2(CCCCC1)OOCCCOO2` [N-89, 1,2,6,7-Tetraoxaspiro[7.11]nonadecane]: the “curing of HCV-RNA-replicating cells” value in [1] and in series [2] was “cured” throughout. The “time after treatment at which RL activity was significantly decreased” value in series [3] (0.1 µM) is 9 h; in series [3] (1 µM) it was 6 h. Also, the 50% lethal dose in series [4] and in series [5] was more than 2000 mg/kg throughout. In series [6], the “antimalarial activity in vitro” value is on record as “potent antimalarial activity”. Also, the “antimalarial activity in vivo” value in [7] is reported as “potent antimalarial activity”.
In the case of `OCCCCCCC1COOC2(CCCCCCCCCCC2)OOC1` [N-251, 6-(1,2,6,7-tetraoxaspiro[7.11]nonadec-4-yl)hexan-1-ol], in series [8], the viability at 10 µM was approximately 30%. For the same compound, in series [9], the “relative value of WST-1” value is reported as “almost became zero”.

The values above are taken from publication PMC3758303 (PLoS ONE, 2013).
